Test results from PubChem BioAssay (NCI).
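96-well plates; 48 h exposure; 5 concentrations. Endpoints by linear interpolation between flanking doses. Not reached: highest tested concentration assigned. GI50 marks 50% less growth. TGI: concentration producing complete growth inhibition.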

Legend:
Test in all cases: NCI-60 cell line screen, 48 h
SK-MEL-28 melanoma = tested on: SK-MEL-28 melanoma
OVCAR-5 ovarian = tested on: OVCAR-5 ovarian
SNB-19 CNS = tested on: SNB-19 CNS
SF-268 CNS = tested on: SF-268 CNS
T-47D breast = tested on: T-47D breast
SK-MEL-2 melanoma = tested on: SK-MEL-2 melanoma
UACC-62 melanoma = tested on: UACC-62 melanoma
HOP-92 NSCLC = tested on: HOP-92 NSCLC
RXF 393 renal = tested on: RXF 393 renal
SN12C renal = tested on: SN12C renal

Row | SMILES | GI50 (SK-MEL-28 melanoma) | TGI (SK-MEL-28 melanoma) | GI50 (OVCAR-5 ovarian) | TGI (OVCAR-5 ovarian) | GI50 (SNB-19 CNS) | TGI (SNB-19 CNS) | GI50 (SF-268 CNS) | TGI (SF-268 CNS) | GI50 (T-47D breast) | TGI (T-47D breast) | GI50 (SK-MEL-2 melanoma) | TGI (SK-MEL-2 melanoma) | GI50 (UACC-62 melanoma) | TGI (UACC-62 melanoma) | GI50 (HOP-92 NSCLC) | TGI (HOP-92 NSCLC) | GI50 (RXF 393 renal) | TGI (RXF 393 renal) | GI50 (SN12C renal) | TGI (SN12C renal)
1 | O=C1/C(=C/c2ccc(F)c(F)c2)CN(C(=O)C(Cl)Cl)C/C1=C\c1ccc(F)c(F)c1 | 0.208 µM | 0.513 µM | 0.167 µM | 0.421 µM | 0.0782 µM | 0.274 µM | 0.265 µM | 0.982 µM | 0.302 µM | 2.05 µM | 0.262 µM | 0.785 µM | 0.172 µM | 0.365 µM | 0.211 µM | 0.629 µM | 0.182 µM | 0.399 µM | 0.112 µM | 0.381 µM
2 | C[C@]12CC[C@@H]3c4ccc(O)cc4CC[C@H]3[C@@H]1CC[C@@H]2NS(=O)(=O)c1cccc(Cl)c1 | 2.24 µM | 5.93 µM | 2.59 µM | 8.54 µM | 3.87 µM | 14.4 µM | 3.23 µM | 13.6 µM | 3.49 µM | 11.3 µM | 2.46 µM | 5.73 µM | 1.86 µM | 4.84 µM | 2.08 µM | 5.69 µM | 1.91 µM | 4.9 µM | 1.8 µM | 3.8 µM
3 | CCOc1cc(C(=O)O)c2c(ccc3ccc(OC)c(OC)c32)c1OC | – | > 100 µM | – | > 100 µM | – | > 100 µM | – | > 100 µM | – | > 100 µM | – | > 100 µM | – | > 100 µM | – | > 100 µM | – | > 100 µM | – | > 100 µM
4 | CC(=Nc1ccccc1)C1=C(O)C(Cc2cccc(F)c2)NC1=O (stereo not drawn) | – | – | 0.253 µM | > 100 µM | 0.156 µM | > 100 µM | 0.071 µM | > 100 µM | 0.0425 µM | > 100 µM | 0.0626 µM | > 100 µM | 0.0546 µM | > 100 µM | 0.0242 µM | > 21.1 µM | 0.0186 µM | 0.0561 µM | 0.129 µM | > 100 µM
5 | Cc1cc2c(cc1C)[n+](=O)c(C(=O)/C=C/c1ccc3c(c1)OCO3)c(C)n2[O-] | – | > 100 µM | – | > 100 µM | – | 79.3 µM | – | > 76.9 µM | – | > 100 µM | – | 88.6 µM | – | 59.5 µM | – | 69.1 µM | – | 66.6 µM | – | > 100 µM
6 | O=P(O)(O)OCC1OC(n2cnc3c(NCc4ccco4)ncnc32)C(O)C1O (stereo not drawn) | 16.2 µM | > 100 µM | 5.64 µM | > 100 µM | 4.18 µM | > 100 µM | 3.62 µM | > 79.6 µM | 3.24 µM | 17.3 µM | 11.1 µM | > 50.7 µM | 2.71 µM | 12.5 µM | 1.36 µM | 13.4 µM | 0.965 µM | 4.95 µM | 0.989 µM | > 37.2 µM
7 | O=C1Nc2ccccc2/C1=C\c1cccc(/C=C2/C(=O)Nc3ccccc32)n1 | 0.218 µM | 0.468 µM | 0.888 µM | 2.4 µM | 0.526 µM | 1.98 µM | 0.362 µM | 1.39 µM | 1.13 µM | 3.4 µM | 0.631 µM | 1.62 µM | 0.32 µM | 0.962 µM | 1.48 µM | 4.49 µM | 0.248 µM | 0.61 µM | 0.357 µM | 1.36 µM
8 | COc1cc(OC)cc(-c2nc3sccn3c2/C=N/N=C(N)N)c1 | – | – | 7.25 µM | 13.8 µM | 9.29 µM | 19.3 µM | 10.2 µM | 27.2 µM | 7.23 µM | 17.6 µM | 16.7 µM | > 50 µM | 8.03 µM | 14.8 µM | – | – | 7.96 µM | 16.7 µM | 7 µM | 13.6 µM
9 | COc1ccc(C(C#N)=C2C=CC(=NO)C=C2)cc1 | 28.7 µM | 86.7 µM | 19.5 µM | 34.3 µM | 16.1 µM | 32.1 µM | 3.81 µM | 14.2 µM | 1.76 µM | 5.36 µM | 2.59 µM | 6.18 µM | 8.34 µM | 21.9 µM | – | – | 7.8 µM | 20.5 µM | 12.5 µM | 27.6 µM
10 | Cc1c(NC(=O)CCl)c(=O)oc2c(C)c3occc(=O)c3cc12 | – | 39.2 µM | – | 32.4 µM | – | 33.6 µM | – | 25.9 µM | – | 66.3 µM | – | – | – | – | – | 27.5 µM | – | – | – | –
11 | Nc1ncnc2c1c(-c1ccc(Oc3ccccc3)cc1)nn2C[C@H]1SSC[C@@H]1O | 0.147 µM | 0.403 µM | 6.35 µM | 41 µM | 1.4 µM | 12 µM | – | – | 0.685 µM | 3.63 µM | 0.262 µM | 2.33 µM | 0.276 µM | 0.939 µM | 1.62 µM | 7.15 µM | 1.74 µM | 5.75 µM | 1.36 µM | 13.2 µM
12 | Cc1ccc(-c2c(C#N)[n+](=O)c3cc(F)c(F)cc3n2[O-])cc1 | 20.5 µM | 38.4 µM | 3.91 µM | 15.9 µM | 18.6 µM | 34.9 µM | 14.3 µM | 30 µM | 28.4 µM | 67.5 µM | – | – | 4.25 µM | 16.1 µM | 1.68 µM | 3.84 µM | 2.63 µM | 8.91 µM | 2.61 µM | 8.56 µM
13 | C=C(C)[C@@H]1C/C=C(/CO)CC[C@H]2O[C@]2(C)CC/C=C(\C)CC1 | 14.3 µM | 32.1 µM | 24.7 µM | > 100 µM | 18 µM | 33.8 µM | 19.9 µM | 38.2 µM | 17.4 µM | 47.8 µM | 15.3 µM | 31.3 µM | 15.1 µM | 35.6 µM | – | – | 18.3 µM | 33.4 µM | 14.6 µM | 29 µM
14 | O=C1CSC(c2ccc(-c3nc4ccccc4[nH]3)cc2)=N1 | – | – | > 50 µM | > 50 µM | > 50 µM | > 50 µM | 22.4 µM | > 50 µM | > 50 µM | > 50 µM | 19 µM | > 50 µM | 12.5 µM | > 50 µM | > 50 µM | > 50 µM | – | – | > 50 µM | > 50 µM
